US20070071688A1, “Pharmaceutical compositions for transdermal administration of anti-inflammatory agents” (sanofi-aventis, priority 2000, published 2007)
In brackets after ≈: the same amount, converted by molar mass.

How the values were obtained:
[1] = Saturation solubility of ibuprofen in components of the transdermal formulation (without matrix); type: physicochemical; conditions: 30° C.
Protocol: Comparative tests were carried out in order to determine the saturation solubility of ibuprofen in various components of the transdermal formulation of the invention in the absence of matrix, namely water, 2-ethylhexyl 2-ethylhexanoate as transcutaneous absorption promoter, referred to hereinbelow as “promoter”, and isopropanol as nonaqueous solvent.
These various components were used alone or as homogeneous mixtures forming a clear solution, and the solubility measurements were performed at 30° C., after 24 hours of magnetic stirring and after filtration through a 0.22 μm filter.

[2] = Preliminary trials on solubility of ibuprofen in various solvents or components; type: physicochemical
Protocol: In the context of the present invention, preliminary trials were carried out directed essentially toward studying the solubility of ibuprofen in various solvents or components.

**Q.** For `CC(C)Cc1ccc(C(C)C(=O)O)cc1` (centres unmarked) [Ibuprofen], which Ibuprofen saturating concentration ([1]; isopropanol 68.21 / promoter 31.79 % m/m, no water, 24 hours) is on record?
**A.** The Ibuprofen saturating concentration was 403 mg/mL.

**Q.** And the Ibuprofen saturating concentration ([1]; isopropanol 89.31 / promoter 10.69 % m/m, no water, 24 hours)?
**A.** The Ibuprofen saturating concentration was 424 mg/mL.

**Q.** What about the Ibuprofen saturating concentration ([1]; isopropanol 100% m/m, 24 hours magnetic stirring, 0.22 μm filtration) of the same compound?
**A.** The Ibuprofen saturating concentration was 441 mg/mL.

**Q.** And the Ibuprofen saturating concentration ([1]; promoter (2-ethylhexyl 2-ethylhexanoate) 100% m/m, 24 hours magnetic stirring, 0.22 μm filtration)?
**A.** Its Ibuprofen saturating concentration is 192 mg/mL.

**Q.** And the solubility thermodynamic at 24 h ([1]; thermodynamic from solid, water 100% m/m, 24 hours magnetic stirring, 0.22 μm filtration, read-out: Ibuprofen saturating concentration)?
**A.** The solubility thermodynamic at 24 h was 69 µg/mL (≈ 334 µM).

**Q.** And the Ibuprofen saturating concentration ([1]; water 4.33 / isopropanol 85 / promoter 10.67 % m/m, 24 hours)?
**A.** The Ibuprofen saturating concentration was 451 mg/mL.

**Q.** What about the Ibuprofen saturating concentration ([1]; water 4.38 / isopropanol 68.16 / promoter 27.46 % m/m, 24 hours) of the same compound?
**A.** The Ibuprofen saturating concentration was 431 mg/mL.

**Q.** And the Ibuprofen saturating concentration ([1]; water 8.54 / isopropanol 68.23 / promoter 23.23 % m/m, 24 hours)?
**A.** The Ibuprofen saturating concentration was 436 mg/mL.

**Q.** And the Ibuprofen saturating concentration ([1]; water 8.59 / isopropanol 80.7 / promoter 10.69 % m/m, 24 hours)?
**A.** Its Ibuprofen saturating concentration is 448 mg/mL.

**Q.** And the solubility in water [2]?
**A.** Its solubility in water is “entirely water-insoluble”.

**Q.** What about the “solubility in fatty acid ester/alcohol mixtures” value ([2]; 2-ethylhexyl 2-ethylhexanoate/ethanol or isopropanol mixtures) of the same compound?
**A.** The value was “soluble”.
